Data set [1] relates to central nervous system. Kind of data set: stimulation of the central nervous system. Particulars: in vivo.
Another data set has as its system ileum. Kind of data set: spasmolytic activity on isolated ileum of guinea pigs. The text has this:
(§1) The active dosages are comprised between 5 and 20 micrograms/ml in vitro, and from 50 to 500 micrograms/kilogram e.v. The acute toxicity of the compound LI has proven to be extremely low and consequently the therapeutic index is favorable for its use as a spasmolytic of the smooth muscles of the vessels and organs other than vessels.
In addition, the compound IV acts on the trachea of guinea pigs as a releasing agent at the concentration of 0.5-1 microgram/ml. On the ileum of the same animals, as a spasmolytic at a concentration of 50-100 micrograms/ml and on the uterus and stomach of rats as an antiserotoninic at the concentration of 0.05-0.1 micrograms/ml. […] The compound on the basis of the pharmacological and toxicological properties which have been detected can be employed for the treatment of headaches.

The subject of a further data set is deferent vessel. Kind of data set: spasmolytic activity on isolated deferent vessel of rats.
Text: as §1

Data set [2] has as its system muscles of the peripheral vessels. The data set can be described thus: spasmolytic effects in vivo on the muscles of the peripheral vessels. To be noted: e.v.
Text: as §1

Another data set is described as follows: therapeutic index. It counts as in vivo.
Text: The active concentrations are comprised between 2 and 20 micrograms per ml. […] The range of the active dosages is comprised between 20 and 100 micrograms/kilogram e.v. In vitro, the compound XXXVIII releases the muscles of the aorta of rabbits at concentrations of 50-100 micrograms/ml. The therapeutic index is favourable for an indication of the product as an antispastic of the gastro-intestinal system and the biliary tract.
as §1

Data set [3] relates to bowel and vessel muscles. Kind of data set: spasmolytic properties on the bowel and vessel muscles in vitro.
Text: as §1

Data set [4] concerns bowel and vessel muscles. Kind of data set: spasmolytic properties on the bowel and vessel muscles in vivo.
Text: as §1

A further data set in a line: acute toxicity. Particulars: in vivo.
Text: as §1

The test system of a further data set is dogs. Kind of data set: peripheral vasoconstrictive hypertensive action in vivo, in dogs.
For data set [5], the system named is alpha-adrenergic receptors. The data set can be described thus: stimulation of the alpha-adrenergic receptors. Particulars: on the basis of the tests carried out.
The subject of data set [6] is smooth muscles of the vessels. Kind of data set: antiserotoninic effects in vivo at the level of the smooth muscles of the vessels. Particulars: e.v.
Data set [7] has as its system central nervous system. The data set can be described thus: antiserotoninic effects in vivo at the level of the central nervous system. To be noted: s.c.

Regarding `CC(Cc1ccccc1)NC(=O)OC[C@@H]1C=C2c3cccc4[nH]cc(c34)C[C@H]2N(C)C1` (stereo partly drawn) [compound XXV, D-6-methyl-8β-(α-methylphenethylaminocarbonyloxymethyl)-9,10-didehydroergoline], the “stimulating effects on the central nervous system” value in the data set on central nervous system [1] is “interesting actions which stimulated the central nervous system”. For the same molecule, the spasmolytic activity result in the data set on ileum and in the data set on deferent vessel was “considerable spasmolytic activity” each time. In data set [2], the “dosages (spasmolytic effects on the muscles of the peripheral vessels)” value is 20-200 micrograms/kilogram.
As for `CN1C[C@H](COC(=O)N2CCCCCC2)C[C@@H]2c3cccc4[nH]cc(c34)C[C@H]21` [compound XXXVIII, D-6-methyl-8β-(perhydroazepinylcarbonyloxymethyl)-ergoline], the therapeutic index result in “therapeutic index” (as antispastic of the gastro-intestinal system and the biliary tract) is on record as “favourable”.
On to `CC(Cc1ccccc1)NC(=O)OC[C@@H]1C[C@@H]2c3cccc4[nH]cc(c34)C[C@H]2N(C)C1` (stereo partly drawn) [compound LI, D-6-methyl-8β-(α-methylphenethylaminocarbonyloxymethyl)-ergoline], for which, in “therapeutic index” (as spasmolytic of the smooth muscles of the vessels and organs other than vessels), the therapeutic index entry is listed as “favorable”. The “stimulating effects on the central nervous system” value with central nervous system [1] was “lost the stimulating effects on the central nervous system”. Moreover, the “spasmolytic properties on the bowel and vessel muscles” value with bowel and vessel muscles [3] was “retained”; in the data set on bowel and vessel muscles [4] it was “retained”. Moreover, the acute toxicity entry in “acute toxicity” is on record as “extremely low”.
In the case of `CN(C)C(=O)OC[C@@H]1C=C2c3cccc4[nH]cc(c34)C[C@H]2N(C)C1` [compound IV], the “dose dependence of the vasoconstrictive hypertensive effect” value in the data set on dogs (dogs and cats, e.v.) is given as “proportional to the dosage”. In addition, the “peripheral vasoconstrictive hypertensive action” value in the data set on dogs (in vivo) is “strong peripheral vasoconstrictive hypertensive action”. For the same molecule, the “action on the alpha-adrenergic receptors” value in data set [5] is on record as “stimulant of the alpha-adrenergic receptors”. For the same molecule, the “active dosages (antiserotoninic, smooth muscles of the vessels)” value in data set [6] is reported as 5-10 micrograms/kilogram. Also, in the data set on central nervous system [7], the “active dosages (antiserotoninic, central nervous system)” value was 0.5-1 milligrams/kilograms.

Values taken from patent US4057635A, “Carbamates of ergolines and therapeutic compositions therewith” (Simes Societa Italiana Medicinali e Sintetici S.p.A., priority 1973, dated 1977).
